Patent US11426371B2, “Compositions and methods for treating cancer” (University of Virginia Patent Foundation, priority 2017, dated 2022)
Like-named read-outs stand apart in the source and are kept apart here.

Legend:
Assay in all cases: Cell viability, panel of AML cell lines
Format in all cases: cell-based
[1] = test system: HEL; conditions: Homo sapiens, HEL cells
Protocol: (§1) Representative human AML cell lines (FIG. 2A; upper and lower panels) HL60/VCR and (FIG. 2B; upper and lower panels) OCI-AML2 were treated with SACLAC for 24 and 48 hours. Viability was assessed by MTS assay at 24 and 48 hours and apoptosis was assessed by flow cytometry at 48 hours. Upper panels represent % viability and lower panels indicate % apoptosis.
(§2) Two representative human-derived AML cell lines, HL60/VCR and OCI-AML2, are shown. These studies have been expanded to a large panel of additional human AML cell lines (n=30, Table 1).

[2] = test system: HL60/ABTR; conditions: Homo sapiens, HL-60, HL60/ABTR cells (drug resistant variant)
Protocol: as §1, §2

[3] = test system: HL60/VCR; conditions: Homo sapiens, HL60/VCR cells (drug resistant variant)
Protocol: as §1, §2

[4] = test system: HL60; conditions: Homo sapiens, HL-60, HL60 cells
Protocol: as §1, §2

[5] = test system: KGI/ABTR; conditions: Homo sapiens, KGI/ABTR cells
Protocol: as §1, §2

[6] = test system: KGIa/ABTR; conditions: Homo sapiens, KGIa/ABTR cells
Protocol: as §1, §2

[7] = test system: KGI; conditions: Homo sapiens, KGI cells
Protocol: as §1, §2

[8] = test system: Kasumi-1; conditions: Homo sapiens, Kasumi-1 cells
Protocol: as §1, §2

[9] = test system: Kasumi-3; conditions: Homo sapiens, Kasumi-3 cells
Protocol: as §1, §2

[10] = test system: Kasumi-6; conditions: Homo sapiens, Kasumi-6 cells
Protocol: as §1, §2

[11] = test system: ME-1; conditions: Homo sapiens, ME-1 cells
Protocol: as §1, §2

[12] = test system: ML2; conditions: Homo sapiens, ML-2, ML2 cells
Protocol: as §1, §2

[13] = test system: MM-6; conditions: Homo sapiens, MM-6 cells
Protocol: as §1, §2

[14] = test system: MOLM-13; conditions: Homo sapiens, MOLM-13 cells
Protocol: as §1, §2

[15] = test system: MOLM-14; conditions: Homo sapiens, MOLM-14 cells
Protocol: as §1, §2

[16] = test system: MV4-11; conditions: Homo sapiens, MV4-11 cells
Protocol: as §1, §2

[17] = test system: NB4; conditions: Homo sapiens, NB-4, NB4 cells
Protocol: as §1, §2

[18] = test system: NOMO1; conditions: Homo sapiens, NOMO-1, NOMO1 cells
Protocol: as §1, §2

[19] = test system: OCI-AML2; conditions: Homo sapiens, OCI-AML2 cells
Protocol: as §1, §2

[20] = test system: OCI-AML4; conditions: Homo sapiens, OCI-AML4 cells
Protocol: as §1, §2

[21] = test system: OCI-M2; conditions: Homo sapiens
Protocol: as §1, §2

[22] = test system: SET2; conditions: Homo sapiens, SET-2, SET2 cells
Protocol: as §1, §2

[23] = test system: SKM1; conditions: Homo sapiens, SKM-1, SKM1 cells
Protocol: as §1, §2

[24] = test system: SKNO1; conditions: Homo sapiens, SKNO-1, SKNO1 cells
Protocol: as §1, §2

[25] = test system: THF-1; conditions: Homo sapiens, THF-1 cells
Protocol: as §1, §2

[26] = test system: THP-1; conditions: Homo sapiens, THP-1 cells
Protocol: as §1, §2

[27] = test system: U937; conditions: Homo sapiens, U-937, U937 cells
Protocol: as §1, §2

Structure (SMILES): CCCCCCCCCCCCCCC[C@@H](O)[C@H](CO)NC(=O)CCl [SACLAC, 2-chloro-N-((2S,3R)-1,3-dihydroxyoctadecan-2-yl)acetamide]
- EC50 ([1]; 24 h, read-out: EC50 24 h): 1.2 µM
- EC50 ([1]; 48 h, read-out: EC50 48 h): 1.6 µM
- EC50 ([2]; 24 h, read-out: EC50 24 h): 2.5 µM
- EC50 ([2]; 48 h, read-out: EC50 48 h): 3 µM
- EC50 ([3]; 24 h, read-out: EC50 24 h): 3.3 µM
- EC50 ([3]; 48 h, read-out: EC50 48 h): 2.4 µM
- EC50 ([4]; 24 h, read-out: EC50 24 h): 1.8 µM
- EC50 ([4]; 48 h, read-out: EC50 48 h): 1.2 µM
- EC50 ([5]; 24 h, read-out: EC50 24 h): 5.4 µM
- EC50 ([5]; 48 h, read-out: EC50 48 h): 4.1 µM
- EC50 ([6]; 24 h, read-out: EC50 24 h): 2.9 µM
- EC50 ([6]; 48 h, read-out: EC50 48 h): 2.7 µM
- EC50 ([7]; 24 h, read-out: EC50 24 h): 3.2 µM
- EC50 ([7]; 48 h, read-out: EC50 48 h): 2.7 µM
- EC50 ([8]; 24 h, read-out: EC50 24 h): 0.8 µM
- EC50 ([8]; 48 h, read-out: EC50 48 h): 0.8 µM
- EC50 ([9]; 24 h, read-out: EC50 24 h): 0.5 µM
- EC50 ([9]; 48 h, read-out: EC50 48 h): 0.7 µM
- EC50 ([10]; 24 h, read-out: EC50 24 h): 2.1 µM
- EC50 ([10]; 48 h, read-out: EC50 48 h): 2.7 µM
- EC50 ([11]; 24 h, read-out: EC50 24 h): 2.1 µM
- EC50 ([11]; 48 h, read-out: EC50 48 h): 1.2 µM
- EC50 ([12]; 24 h, read-out: EC50 24 h): 1.7 µM
- EC50 ([12]; 48 h, read-out: EC50 48 h): 1.8 µM
- EC50 ([13]; 24 h, read-out: EC50 24 h): 7.8 µM
- EC50 ([13]; 48 h, read-out: EC50 48 h): 6 µM
- EC50 ([14]; 24 h, read-out: EC50 24 h): 1.1 µM
- EC50 ([14]; 48 h, read-out: EC50 48 h): 1.4 µM
- EC50 ([15]; 24 h, read-out: EC50 24 h): 0.5 µM
- EC50 ([15]; 48 h, read-out: EC50 48 h): 0.5 µM
- EC50 ([16]; 24 h, read-out: EC50 24 h): 2.3 µM
- EC50 ([16]; 48 h, read-out: EC50 48 h): 1.3 µM
- EC50 ([17]; 24 h, read-out: EC50 24 h): 0.2 µM
- EC50 ([17]; 48 h, read-out: EC50 48 h): 0.6 µM
- EC50 ([18]; 24 h, read-out: EC50 24 h): 1.1 µM
- EC50 ([18]; 48 h, read-out: EC50 48 h): 0.8 µM
- EC50 ([19]; 24 h, read-out: EC50 24 h): 1.8 µM
- EC50 ([19]; 48 h, read-out: EC50 48 h): 1.1 µM
- EC50 ([20]; 24 h, read-out: EC50 24 h): 1.4 µM
- EC50 ([20]; 48 h, read-out: EC50 48 h): 0.7 µM
- EC50 ([21]; OCI-M2, 24 h, read-out: EC50 24 h): > 10 µM
- EC50 ([21]; OCI-M2, 48 h, read-out: EC50 48 h): > 10 µM
- viability at 10 µM ([21]; OCI-M2 cells, 10 μM, read-out: viable cells at the highest tested dose): 60%
- EC50 ([22]; 24 h, read-out: EC50 24 h): 2.6 µM
- EC50 ([22]; 48 h, read-out: EC50 48 h): 3.3 µM
- EC50 ([23]; 24 h, read-out: EC50 24 h): 1.6 µM
- EC50 ([23]; 48 h, read-out: EC50 48 h): 0.7 µM
- EC50 ([24]; 24 h, read-out: EC50 24 h): 0.9 µM
- EC50 ([24]; 48 h, read-out: EC50 48 h): 0.8 µM
- EC50 ([25]; 24 h, read-out: EC50 24 h): 6.7 µM
- EC50 ([25]; 48 h, read-out: EC50 48 h): 4.8 µM
- EC50 ([26]; 24 h, read-out: EC50 24 h): 2.6 µM
- EC50 ([26]; 48 h, read-out: EC50 48 h): 2.2 µM
- EC50 ([27]; 24 h, read-out: EC50 24 h): 1 µM
- EC50 ([27]; 48 h, read-out: EC50 48 h): 1.7 µM
